# Measured values reported in patent publication EP0117578A2, “Azole-substituted alcohol derivatives” (SHIONOGI & CO., LTD., priority 1983, dated 1984).
# What was measured:
# [1] = tested on: cucurbit powdery mildew (Sphaerotheca fuliginea); experiment: Control of powdery mildew in cucumber; format: in vivo; set-up: key: O: Disease sign was detected for nearly 100 % area in the inoculated leaf surface; 3: Disease sign was detected for about 50 % area; 5: Disease sign was detected for about 30 % area; 7: Disease sign was detected for about 20 % area; 9: Disease sign was slightly detected; 10: No disease sign was detected; conditions: degree of mildew infection 10 days after inoculation; for Foliar spray (125 ppm) Supprension: sprayed at 125 ppm 2 days after inoculation; for Foliar spray (125 ppm) Prevention: sprayed at 125 ppm before inoculation; for Soil application (10 ppm) Prevention: 10 ml at 10 ppm applied to the soil before inoculation
# Protocol: Three ml of preparation containing a test compound at a concentration of 125 ppm was sprayed foliarly to the first leaf of young cucumber plant (cultivar: Matsukaze) which was grown in 9 cm pot in a glasshouse. Similar preparation in 10 ml with the test compound at a concentration of 10 ppm was applied directly to the soil in another pot with cucumber. These plants were inoculated subsequently with conidia suspension of cucurbit powdery mildew (Sphaerotheca fuliginea) and kept in a glasshouse at the temperature of 25 ± 2 °C. Yet in another experiment cucumber in pot was inoculated first with conidia of Sphaerotheca fuliginea and after 2 days the test compound was sprayed foliarly as above to examine its suppressive ability against development of the disease. For all these cucumber plants were observed 10 days after each inoculation and degrees of mildew infection were given as follows: • O : Disease sign was detected for nearly 100 % area in the inoculated leaf surface • 3 : Disease sign was detected for about 50 % area • 5 : Disease sign was detected for about 30 % area • 7 : Disease sign was detected for about 20 % area • 9 : Disease sign was slightly detected • 10: No disease sign was detected
# Trichophyton asteroides = experiment: in vitro antifungal test, minimum inhibitory concentration (MIC); format: cell-based; conditions: Sabouraud's dextrose broth
# Excerpt: Sabouraud's dextrose broth was used as a culture medium.
# Candida albicans KE-2 [2] = experiment: Inhibition test against the formation of the pseudohyphae of Candida albicans; format: cell-based; conditions: KE2; Candida albicans KE-2, 1 x 10^6 cells/ml; Eagle's MEM with 20 % bovine serum; 37°C, 18 hours; two-fold dilution; read-out: Inhibitory Concentration against Pseudohyphae Formation
# Protocol: [Inhibition test against the formation of the pseudohyphae of Candida albicans] To an Eagle's MEM medium (Nissan 2; Nissui Pharmaceutical Co., Ltd.) was added 20 % bovine serum, onto which yeast cells of Candida albicans KE-2 were inoculated so that the terminal inoculum size would amount to 1 x 10^6 cells/ml. Then, a test compound was added to the medium by a two-fold dilution method, and cultivation was performed at 37°C for 18 hours. After termination of the cultivation, the cells of serial dilution on each medium were smeared and fixed on an object glass, then stained by the Giemsa's staining method, and the occurrence of the pseudohyphae was observed by microscopy. Minimum concentration for inhibiting the formation of the pseudohyphae was regarded as Inhibitory Concentration against Pseudohyphae Formation.
# [3] = tested on: dumping-off pathogen, Rhizoctonia solani; experiment: Control of dumping-off in cucumber seedlings; format: in vivo; conditions: cucumber seeds, 14 days after sowing; for Disease degree (%): 30 ml at 500 ppm applied to the soil, 30 ± 2 °C; for Control (%): 500 ppm applied to the soil, calculated from disease degree
# Protocol: Twenty seeds of cucumber (cultivar: Matsukaze) were sown in 150 g of sterilized soil in 9 cm pot. The soil surface was covered with 15 g of inoculum which contained a dumping-off pathogen, Rhizoctonia solani precultured in a mixture of wheat bran and sterilized soil. Then 30 ml of preparation with a test compound at a concentration of 500 ppm was applied to the soil and the pot was kept at 30 ± 2 °C in a humid chamber.
# Candida albicans KE-2 [4] = experiment: Therapeutic effect against experimental candidiasis in mice; format: in vivo; conditions: female Jcl-ICR mice infected intravenously; 50 mg/kg orally twice a day for 5 days; survival at the 15th day
# Protocol: [Therapeutic effect against experimental candidiasis in mice] Candida albicans KE-2 was cultivated in a Sabouraud's dextrose agar at 28°C for 48 hours, and the resulting culture was suspended in the Sabouraud's dextrose broth. The cells (5 x 105) were administered intravenously at the tail of female Jcl-ICR mice (4 weeks age, body weight 18 - 20 g). The test compound suspended in 2 % gum-arabic was orally administered at a dose of 50 mg/kg twice a day for 5 days: on the first day, the test compound was administered twice i.e. immediately after the infection and 2 hours later; on the second day or later, 24 hours after the administration of the previous day respectively. An infected group to which no test compound was administered was regarded as a control group. Eight mice were employed per group in the control group and the test groups to which the test compound was administered. Therapeutic effect was evaluated on the survival rate at the 15th day since the day of infection; the result is shown below.
# [5] = tested on: sheath blight fungus (Rhizoctonia solani); experiment: Control of sheath blight in rice; format: in vivo; conditions: rice sprayed foliarly at 500 ppm, 5 days
# Protocol: Rice (cultivar: Aichi-asahi) was grown in pots in a glasshouse for about 3 months and the plant in each pot was sprayed foliarly with 5 ml of preparation containing a test compound at a concentration of 500 ppm. Then the rice was inoculated at the stem near the soil with sheath blight fungus (Rhizoctonia solani) which was previously cultured in rice husks. The inoculated plant was placed in a humid (r.h. 97 %) chamber at 28°C for 5 days.
# [6] = tested on: cucumber downy mildew (Pseudoperonospora cubensis); experiment: Control of cucumber downy mildew; format: in vivo; conditions: cucumber leaf sprayed at 125 ppm, 10 days
# Protocol: The first leaf of young cucumber plant (cultivar : Matsukaze) grown in pot was sprayed with 3 ml of preparation containing a test compound at a concentration of 125 ppm. Five small droplets of suspension of sporangia of cucumber downy mildew (Pseudoperonospora cubensis) were applied to the leaf surface and the pot was kept at 22 ± 2°C under humid condition for 10 days. Then disease degree of downy mildew symptom developed was determined by the following method : [formula] • where, a : Number of inoculations showing typical disease symptom • b : Number of inoculations at which chlorosis was developed • c : Number of inoculations at which chlorosis was slightly developed • d : Number of inoculations at which no disease symptoms were developed Disease degree in Disease degree in [formula]
smiles,measurement,setting,value
"O=C(c1ccc(Cl)cc1Cl)C(O)(Cn1ccnc1)c1ccc(Cl)cc1Cl (centres unmarked) [Compound No. 1, 2',4'-dichloro-2-(2,4-dichlorophenyl)-2-hydroxy-3-(1H-imidazol-1-yl)propiophenone]",Foliar spray (125 ppm) Supprension,[1],10
same,Foliar spray (125 ppm) Prevention,[1],10
same,MIC,Trichophyton asteroides,0.1 µg/mL
O=C(c1ccc(Cl)cc1Cl)C(O)(Cn1cncn1)c1ccc(Cl)cc1Cl (centres unmarked) [compound 6],minimal effective concentration,Candida albicans KE-2 [2],0.16 µg/mL
same,MIC,Trichophyton asteroides,0.1 µg/mL
COc1ccc(C(=O)C(O)(Cn2cncn2)c2ccc(OC)cc2)cc1 (centres unmarked) [compound 7],MIC,Trichophyton asteroides,12.5 µg/mL
O=C(c1ccc(F)cc1)C(O)(Cn1cncn1)c1ccc(Cl)cc1Cl (centres unmarked) [compound 8],Disease degree (%),[3],5%
same,Control (%),[3],95%
same,minimal effective concentration,Candida albicans KE-2 [2],1.25 µg/mL
Cc1ccc(C(=O)C(O)(Cn2cncn2)c2ccc(C)cc2)cc1 (centres unmarked) [compound 9],MIC,Trichophyton asteroides,1.56 µg/mL
O=C(c1ccccc1Cl)C(O)(Cn1cncn1)c1ccccc1Cl (centres unmarked) [compound 10],Disease degree (%),[3],8%
same,Control (%),[3],92%
same,minimal effective concentration,Candida albicans KE-2 [2],0.08 µg/mL
same,MIC,Trichophyton asteroides,0.1 µg/mL
O=C(c1cccc(Cl)c1)C(O)(Cn1cncn1)c1cccc(Cl)c1 (centres unmarked) [compound 11],MIC,Trichophyton asteroides,3.13 µg/mL
O=C(c1ccc(F)cc1)C(O)(Cn1cncn1)c1ccccc1Cl (centres unmarked) [compound 19],Survival Rate,Candida albicans KE-2 [4],100%
CCCCC(=O)C(O)(Cn1cncn1)c1ccc(Cl)cc1Cl (centres unmarked) [compound 23],MIC,Trichophyton asteroides,0.1 µg/mL
CCCC(=O)C(O)(Cn1cncn1)c1ccc(Cl)cc1Cl (centres unmarked) [compound 25],minimal effective concentration,Candida albicans KE-2 [2],0.04 µg/mL
same,Growth of mycelia (mm),"[5]; 28°C, r.h. 97 %",20 mm
same,Suppression (%),[5]; calculated from growth of mycelia,90%
same,Soil application (10 ppm) Prevention,[1],10
same,Foliar spray (125 ppm) Supprension,[1],10
same,Foliar spray (125 ppm) Prevention,[1],10
same,MIC,Trichophyton asteroides,0.1 µg/mL
CCC(C)C(=O)C(O)(Cn1cncn1)c1ccc(Cl)cc1Cl (centres unmarked) [compound 28],minimal effective concentration,Candida albicans KE-2 [2],0.02 µg/mL
CCCC(=O)C(O)(Cn1cncn1)c1ccccc1Cl (centres unmarked) [compound 32],minimal effective concentration,Candida albicans KE-2 [2],0.04 µg/mL
same,Soil application (10 ppm) Prevention,[1],10
same,Foliar spray (125 ppm) Supprension,[1],10
same,Foliar spray (125 ppm) Prevention,[1],10
same,MIC,Trichophyton asteroides,0.8 µg/mL
CCC(C)C(=O)C(O)(Cn1cncn1)c1ccc(Cl)cc1 (centres unmarked) [compound 34],MIC,Trichophyton asteroides,0.1 µg/mL
O=C(c1ccccc1F)C(O)(Cn1cncn1)c1ccc(Cl)cc1Cl (centres unmarked) [compound 46],Disease degree (%),[3],0%
same,Control (%),[3],100%
same,Survival Rate,Candida albicans KE-2 [4],87.5%
same,Disease degree (%),"[6]; 22 ± 2°C, humid",20%
same,Control (%),[6]; calculated from disease degree,80%
same,Soil application (10 ppm) Prevention,[1],5 (Disease sign was detected for about 30 % area)
same,Foliar spray (125 ppm) Supprension,[1],10
same,Foliar spray (125 ppm) Prevention,[1],10
"OC(c1ccc(Cl)cc1Cl)C(O)(Cn1cncn1)c1ccc(Cl)cc1Cl (centres unmarked) [compound 63, 1,2-bis(2,4-dichlorophenyl)-3-(1H-1,2,4-triazol-1-yl)-propylene glyco]",minimal effective concentration,Candida albicans KE-2 [2],0.08 µg/mL
same,Survival Rate,Candida albicans KE-2 [4],75%
same,MIC,Trichophyton asteroides,0.1 µg/mL
OC(c1ccc(F)cc1)C(O)(Cn1cncn1)c1ccc(Cl)cc1Cl (centres unmarked) [compound 67],minimal effective concentration,Candida albicans KE-2 [2],0.08 µg/mL
same,Survival Rate,Candida albicans KE-2 [4],100%
same,MIC,Trichophyton asteroides,0.1 µg/mL
OC(c1ccccc1Cl)C(O)(Cn1cncn1)c1ccccc1Cl (centres unmarked) [compound 69],minimal effective concentration,Candida albicans KE-2 [2],0.08 µg/mL
same,MIC,Trichophyton asteroides,0.1 µg/mL
OC(c1ccc(F)cc1)C(O)(Cn1cncn1)c1ccc(F)cc1 (centres unmarked) [compound 71],Soil application (10 ppm) Prevention,[1],10
same,Foliar spray (125 ppm) Supprension,[1],10
same,Foliar spray (125 ppm) Prevention,[1],10
same,MIC,Trichophyton asteroides,1.56 µg/mL
OC(c1ccc(Cl)cc1Cl)C(O)(Cn1cncn1)c1ccc(F)cc1 (centres unmarked) [compound 78],minimal effective concentration,Candida albicans KE-2 [2],0.31 µg/mL
CCCC(O)C(O)(Cn1cncn1)c1ccc(Cl)cc1 (centres unmarked) [compound 80],MIC,Trichophyton asteroides,1.6 µg/mL
